Assay results as given in US20250194600A1, “MESOIONIC ARYLPYRIDAZINIUM DERIVATIVE OR SALT THEREOF AND INSECTICIDAL AGENT CONTAINING THE COMPOUND AND METHOD FOR USING SAME” (NIHON NOHYAKU CO., LTD., priority 2022, published 2025).

Key:
[1] = test system: Western flower thrips (Frankliniella occidentalis); assay: Insecticidal test on western flower thrips, larvae on kidney bean leaf pieces; type: in vivo; conditions: 96 h, hatched larvae on kidney bean leaf pieces, counted 4 days after treatment, read-out: insecticidal efficacy (corrected mortality rate) against western flower thrips
Source text: (§1) • A: the mortality rate is 100%. • B: the mortality rate is 90 to 99%. • C: the mortality rate is 80 to 89%. • D: the mortality rate is 50 to 79%. • E: the mortality rate is 0 to 49.
Insecticidal Test on Western flower thrips (Frankliniella occidentalis)
Female adults of western flower thrips were inoculated onto kidney bean leaf pieces, and allowed to lay eggs thereon for one day, then the female adults were removed. After 3 days, the hatched larvae on the leaf pieces were counted, and then the agrochemical dispersions diluted to 50 ppm or 500 ppm, each of which contained the compound described in Tables 1 to 5 as an active ingredient were applied. The number of larvae of the species surviving at 4 days after the treatment was counted, and the corrected mortality rate was calculated according to the formula shown below, and the insecticidal efficacy was evaluated according to the criteria of Test Example 1. This test was conducted in duplicate.

[2] = test system: Small Brown Planthopper (Laodelphax striatellus); assay: Insecticidal test on small brown planthopper, dip treatment of rice plant seedlings; type: in vivo; conditions: 192 h, rice seedlings dipped 30 seconds, 3rd-instar larvae, counted 8 days after inoculation, read-out: insecticidal efficacy (corrected mortality rate) against small brown planthopper
Source text: as §1
Insecticidal Test on Small Brown Planthopper (Laodelphax striatellus)
The compounds represented by the general formula (1) of the present invention or salts thereof were separately dispersed in water and diluted to 50 ppm or 500 ppm. Rice plant seedlings (variety: Nihonbare) were dipped in the agrochemical dispersions for 30 seconds. After air-dried, each seedling was put into a separate glass test tube and inoculated with ten 3rd-instar larvae of small brown planthopper, and then the glass test tubes were capped with cotton plugs. At 8 days after the inoculation, the numbers of surviving larvae and dead larvae were counted, the corrected mortality rate was calculated according to the formula shown below, and the insecticidal efficacy was evaluated according to the criteria of Test Example 1.

O=C(Nc1ccc(F)cc1)c1c([S-])c[n+](-c2ccc(C(F)(F)F)nc2)nc1O [2-1, 4-((4-fluorophenyl)carbamoyl)-3-hydroxy-1-(6-(trifluoromethyl)pyridin-3-yl)pyridazin-1-ium-5-thiolate]
100%: mortality at 50 ppm ([1]; 50 ppm) | mortality at 500 ppm ([1]; 500 ppm) | mortality at 500 ppm [2]
